From patent EP1278852B1, “ZSIG33-LIKE PEPTIDES” (ZymoGenetics, Inc., priority 2000, dated 2001)
No end group written: not given here.

System: ob/ob mice
Assay: In vivo glucose absorption (oral glucose challenge)
Conditions: given orally at 100 µg, 30 minutes prior to an oral glucose challenge; serum glucose
Procedure: Eight female ob/ob mice, approximately 6 weeks old (Jackson Labs, Bar Harbor, ME) are adapted to a 4 hour daily feeding schedule for two weeks. After two weeks on the feeding schedule, the mice are give 100 µg of a peptide corresponding to the amino acid sequence as shown in SEQ ID NOs:4-6, 9-11, 14-17, 20-22, or 25-26 in 100 µl sterile 0.1% BSA by oral gavage, immediately after their eating period (post-prandially). Thirty minutes later, the mice are challenged orally with a 0.5 ml volume of 25% glucose. Retroorbital bleeds are done to determine serum glucose levels. Blood is drawn prior to peptide dosing, prior to oral glucose challenge, and at 1, 2, 4, and 20 hours following the glucose challenge.

Substance | post-prandial glucose absorption
zsig33-delta: peptide corresponding to residues 1 to 10 of SEQ ID NO:14; listing has 10-residue SEQ ID NO:20 (FNAPFDVGIK) | enhanced post-prandial glucose absorption
zsig33-epsilon: peptide corresponding to residues 1 to 13 of SEQ ID NO:17; listing has 13-residue amidated SEQ ID NO:26 (LSGVQYQQHSQAL-NH2) | enhanced post-prandial glucose absorption
zsig33-gamma: peptide corresponding to residues 1 to 17 of SEQ ID NO:10; listing has 17-residue SEQ ID NO:14 (FLQDILWEEAKEAPADK) | enhanced post-prandial glucose absorption
